According to ChEMBL document CHEMBL5726156, “Pyridone or pyrimidone derivative, preparation method therefor and application thereof” (2019):

Target: Coagulation factor XI (Homo sapiens, UniProt P03951)
Test: In Vitro Inhibitory Effect of the Compounds of the Present Invention on the Enzymatic Activity of Blood-Coagulation Factor XIa: The following method was used to test the in vitro inhibitory effect of the compounds of the present invention on the activity of human blood-coagulation factor XIa, expressed by the Inhibition constant Ki.Solution preparation: reaction buffer: 0.03M HEPES acid, 0.145M NaCl, 0.005 M KCl, 0.1% PEG-8000, pH=7.5;HEPES 8.499 g, NaCl 8.47 g, KCl 0.3725, PEG 8000 1 g, plus ddH2O 800 ml; the pH was adjusted to 7.4 with HCl, and the volume was metered to 1 L.S2366 substrate stock solution (2 mM): a volume of substrate ([…]) was dissolved in 23 ml sterile deionized water, aliquoted, and stored at 4° C. in darkness.S2366 substrate working solution: the stock solution was diluted by 4 folds with the reaction buffer before use.FXIa working solution: 1 μl FXIa stock solution was added to 10 ml reaction buffer and thoroughly mixed before use.Method: 15 μl test sample working solution (15 μl DMSO for the control group) and 75 μl FXIa working solution were added to a 96-well plate, and incubated at room temperature for 15 min. Then 60 μl S2366 substrate working solution was added to initiate the reaction. […]

Coagulation factor XI, sequence (P03951 19-387 limits assumed): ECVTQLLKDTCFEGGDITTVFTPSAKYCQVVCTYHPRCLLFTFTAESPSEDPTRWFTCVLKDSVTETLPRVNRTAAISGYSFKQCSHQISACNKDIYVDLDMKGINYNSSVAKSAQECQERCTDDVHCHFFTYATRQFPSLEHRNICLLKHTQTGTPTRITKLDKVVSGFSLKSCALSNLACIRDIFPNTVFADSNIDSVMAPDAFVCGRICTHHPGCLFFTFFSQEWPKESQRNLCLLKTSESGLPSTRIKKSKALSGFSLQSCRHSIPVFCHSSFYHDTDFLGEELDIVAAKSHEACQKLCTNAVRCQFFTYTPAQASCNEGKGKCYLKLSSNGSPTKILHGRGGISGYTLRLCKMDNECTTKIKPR
Coagulation factor XI, sequence (P03951 388-625 limits assumed): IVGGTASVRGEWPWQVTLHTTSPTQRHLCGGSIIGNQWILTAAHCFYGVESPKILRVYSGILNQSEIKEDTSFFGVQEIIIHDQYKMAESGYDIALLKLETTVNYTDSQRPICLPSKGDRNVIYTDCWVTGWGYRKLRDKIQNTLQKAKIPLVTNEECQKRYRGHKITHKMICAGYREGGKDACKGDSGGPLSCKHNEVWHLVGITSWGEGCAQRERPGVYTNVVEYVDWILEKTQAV

Ki: 0.344 µM
Compound: COC(=O)Nc1ccc(NC(=O)C2CCc3cc(-c4cc(Cl)ccc4-n4cnnn4)cc(=O)n32)cc1 (stereo unspecified)
